How the values were obtained:
[1] = molecular target: T1, human SMINT (Homo sapiens, UniProt Q2M3M2); experiment: Confirmatory test for inhibitory activity on human SMINT (methyl-α-D-glucopyranoside uptake in transiently expressing COS-7 cells); assay type: cell-based; conditions: COS-7 cells transiently expressing human SMINT; 1 mM α-MG; 1 hour, 37° C.; read-out: IC50 value (concentration inhibiting α-MG uptake by 50%)
T1 construct: expressed in transfected cells; host or cells: COS-7 cells (RIKEN CELL BANK RCB0539), transient lipofection
T1 sequence (Q2M3M2 1-681): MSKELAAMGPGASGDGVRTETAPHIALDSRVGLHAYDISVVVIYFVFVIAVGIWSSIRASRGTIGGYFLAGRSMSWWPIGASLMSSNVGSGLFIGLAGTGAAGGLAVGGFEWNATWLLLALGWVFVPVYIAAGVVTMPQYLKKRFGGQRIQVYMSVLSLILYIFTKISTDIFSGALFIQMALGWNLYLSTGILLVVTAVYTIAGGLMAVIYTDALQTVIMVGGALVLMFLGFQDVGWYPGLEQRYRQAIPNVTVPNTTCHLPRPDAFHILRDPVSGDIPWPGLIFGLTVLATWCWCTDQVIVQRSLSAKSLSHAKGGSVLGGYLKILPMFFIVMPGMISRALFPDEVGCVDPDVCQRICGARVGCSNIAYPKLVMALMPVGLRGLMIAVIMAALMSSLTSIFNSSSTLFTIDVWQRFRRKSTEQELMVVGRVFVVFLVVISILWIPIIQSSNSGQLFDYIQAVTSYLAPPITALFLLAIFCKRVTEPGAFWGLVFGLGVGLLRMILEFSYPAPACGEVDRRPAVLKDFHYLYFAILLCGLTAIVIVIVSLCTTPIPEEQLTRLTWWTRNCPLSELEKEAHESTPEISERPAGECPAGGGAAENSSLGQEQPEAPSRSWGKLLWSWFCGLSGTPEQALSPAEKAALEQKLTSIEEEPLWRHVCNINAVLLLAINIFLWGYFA
Description: (§1) Human SMINT-carrying expression plasmid SMINT/pME18S-FL (denotation of bacteria: Escherichia coli/SMINT2010324), which was deposited with Patent Microorganisms Depositary at the National Institute of Technology and Evaluation under an accession number: FERMP-18756 on Mar. 12, 2002, was transfected to COS-7 cells (RIKEN CELL BANK RCB0539) by lipofection method. LIPOFECTAMINE PLUS reagent (Invitrogen) was used as the lipofection reagent. A day before the lipofection, COS-7 cells were suspended in D-MEM medium (Invitrogen) at 6×10^5 cells per 1 mL, and 50 μL of the suspended cells was dispensed into each well of 96-well plate. The lipofection was performed by the following methods. For each well, 0.1 μg of the plasmid was diluted with 10 μL of D-MEM, added 0.5 μL of PLUS reagent, mixed gently, and kept stand for 15 minutes to prepare Plasmid Dilute Solution. For each well, 0.5 μL of LIPOFECTAMINE reagent was diluted with 10 μL of D-MEM to prepare LIPOFECTAMINE Dilute Solution. The Plasmid Dilute Solution was mixed with an equal volume of the LIPOFECTAMINE Dilute Solution, kept stand for 15 minutes. After that, 20 μL of the mixture was added to each well of cell culture medium, and the cells were cultured for 5 hours at 37° C. under 5% CO2. Then 100 μL of D-MEM containing 16.7% fetal bovine serum (Sanko Jun-yaku) was added to each well. […]

[2] = molecular target: T1, human SMINT; experiment: Confirmatory test for substrate specificity of human SMINT (inhibition of α-MG uptake by natural sugars); assay type: cell-based; conditions: natural sugars added to Uptake Buffer with 1 mM α-MG; COS-7 cells transiently expressing human SMINT
Description: FIG. 2 is a graph showing substrate specificity of human SMINT. The vertical axis in dicates methyl-α-D-glucopyranoside (α-MG) uptake activity (%), and the horizontal axis indicates concentration (mol/L).
1) Preparation of Cells Transiently Expressing Human SMINT
as §1, with “Solution.” for “Solution. The Plasmid Dilute Solution was mixed with an equal volume of the LIPOFECTAMINE Dilute Solution, kept stand for 15 minutes. After that, 20 μL of the mixture was added to each well of cell culture medium, and the cells were cultured for 5 hours at 37° C. under 5% CO2. Then 100 μL of D-MEM containing 16.7% fetal bovine serum (Sanko Jun-yaku) was added to each well.”
To Uptake Buffer consisting of 140 mM sodium chloride, 2 mM potassium chloride, 1 mM calcium chloride, 1 mM magnesium chloride, 10 mM 2-[2-(2-hydroxyethyl)-1-piperazinyl]-ethanesulfonic acid, and 5 mM tris(hydroxymethyl)aminomethane (pH 7.4), was added methyl-α-D-glucopyranoside (α-MG) composed of its non-radiolabeled form (Sigma) and ^14C-labeled form (Amersham Biosciences) at 1 mM as the final concentration. […] To the cell lysates were added 150 μL per well of MicroScint 40 (Packard), mixed well, and the radio activity was measured in a micro scintillation counter TOPCOUNT (Packard). α-MG uptake by the cells treated with each concentration of test compounds was calculated as relative activity to control group, which is set as 100% uptake after deducting the basal uptake. […]

Structure (SMILES)	IC50 [1]	recognition as substrate by SMINT (FIG. 2) [2]
COc1ccc(Cc2c(O[C@@H]3O[C@H](CO)[C@@H](O)[C@H](O)[C@H]3O)nn(C(C)C)c2Oc2ccccc2)cc1 [Example 1, 1-Isopropyl-4-(4-methoxybenzyl)-5-phenoxy-3-(β-D-glucopyranosyloxy)-1H-pyrazole]	700 nM	–
O=C[C@H](O)[C@@H](O)[C@@H](O)[C@H](O)CO [galactose]	–	not
OC[C@H]1OC[C@H](O)[C@@H](O)[C@@H]1O [1,5-anhydroglucitol]	–	recognizes
COc1ccc(Cc2c(O[C@@H]3O[C@H](CO)[C@@H](O)[C@H](O)[C@H]3O)nn(C(C)C)c2-n2cccn2)c(OC)c1 [Example 4, 1-Isopropyl-4-(2,4-dimethoxyphenylmethyl)-5-(1H-pyrazol-1-yl)-3-(β-D-glucopyranosyloxy)-1H-pyrazole]	890 nM	–
O=C(CO)[C@@H](O)[C@H](O)[C@H](O)CO [fructose]	–	recognizes

From patent publication US7576064B2, “Pyrazole derivative, drug composition containing the same and production intermediate therefor” (Kissei Pharmaceutical Co., Ltd., priority 2003, dated 2009)
